# Source: patent US20210254056A1, “IDENTIFICATION AND TARGETED MODULATION OF GENE SIGNALING NETWORKS” (CAMP4 THERAPEUTICS CORPORATION, priority 2017, published 2021)
# Where a name gives a salt, the structure may show the parent alone.
# System: hepatocytes
# Assay: RNA-seq of hepatocytes treated with Phase III failure compounds
# Details: for Number (#) of genes having significantly changed expression: Phase III failure compounds, significance: FPKM≥0.5, log 2(fold-change)≥1, q-value≥0.05 (so in the source); for significant modulation of expression of any of the genes analyzed: p≤0.05; for significant changes in gene expression: RNA-seq of Table 36, FPKM≥0.5, log 2(fold-change)≥1, q-value≤0.05; for significant modulation of expression of disease genes: q≤0.05, genes in the value or listed in the block
# Protocol: RNA-seq was performed to determine the effects of the compounds on hepatocytes.
# Significance was determined by the criteria of FPKM≥0.5, a log 2(fold-change)≥1, and a […].
smiles,measurement,setting,value
"Cc1ccc2c(c1)c1c(n2CCc2ccc(C)nc2)CCN(C)C1 [Latrepirdine (dihydrochloride) (57), Latrepirdine]",Number (#) of genes having significantly changed expression,"RNA-seq, hepatocytes",12
same,significant modulation of expression of any of the genes analyzed,"RNA-seq, hepatocytes",not observed to significantly modulate expression
same,effect on disease gene expression,"RNA-seq, hepatocytes",no effect on any disease gene
"Cc1ccc2c(c1)c1c(n2CCc2ccc(C)nc2)CCN(C)C1 [Latrepirdine (dihydrochloride) (64), Latrepirdine]",significant changes in gene expression,,not observed to cause any significant changes in gene expression
"C1=C/COCc2cc(ccc2OCCN2CCCC2)Nc2nccc(n2)-c2cccc(c2)COC/1 [Pacritinib (SB1518), Pacritinib]",significant modulation of expression of disease genes,"RNA-seq, hepatocytes",significantly (q≤0.05) modulate expression
C1=C/COCc2cc(ccc2OCCN2CCCC2)Nc2nccc(n2)-c2cccc(c2)COC/1 [Pacritinib],Number (#) of genes having significantly changed expression,"RNA-seq, hepatocytes",4114
O=P(O)(NCCCl)NCCCl [Palifosfamide],significant modulation of expression of disease genes,"RNA-seq, hepatocytes",significantly (q≤0.05) modulate expression of RMRP and FAM111B
same,RNA-seq results: A1BG expression,"gene A1BG, hepatocytes",−0.13
same,RNA-seq results: AGTR1 expression,"gene AGTR1, hepatocytes",−0.67
same,RNA-seq results: AGXT expression,"gene AGXT, hepatocytes",0.30
same,RNA-seq results: AHI1 expression,"gene AHI1, hepatocytes",0.06
same,RNA-seq results: AMPD3 expression,"gene AMPD3, hepatocytes",−0.01
same,RNA-seq results: AMT expression,"gene AMT, hepatocytes",0.13
same,RNA-seq results: ANGPTL3 expression,"gene ANGPTL3, hepatocytes",−0.28
same,RNA-seq results: ANKS4B expression,"gene ANKS4B, hepatocytes",−0.16
same,RNA-seq results: ANKS6 expression,"gene ANKS6, hepatocytes",0.12
same,RNA-seq results: ANPEP expression,"gene ANPEP, hepatocytes",−0.12
same,RNA-seq results: AOC2 expression,"gene AOC2, hepatocytes",0.34
same,RNA-seq results: APOA2 expression,"gene APOA2, hepatocytes",−0.53
same,RNA-seq results: APOA5 expression,"gene APOA5, hepatocytes",0.00
same,RNA-seq results: APOB expression,"gene APOB, hepatocytes",−0.23
same,RNA-seq results: COG5 expression,"gene COG5, hepatocytes",−0.03
same,RNA-seq results: COG6 expression,"gene COG6, hepatocytes",0.08
same,RNA-seq results: COL1A1 expression,"gene COL1A1, hepatocytes",0.48
same,RNA-seq results: COX6A1 expression,"gene COX6A1, hepatocytes",−0.07
same,RNA-seq results: CP expression,"gene CP, hepatocytes",0.16
same,RNA-seq results: CPS1 expression,"gene CPS1, hepatocytes",0.84
same,RNA-seq results: CPT1A expression,"gene CPT1A, hepatocytes",1.06
same,RNA-seq results: CPT2 expression,"gene CPT2, hepatocytes",0.33
same,RNA-seq results: CROT expression,"gene CROT, hepatocytes",−0.69
same,RNA-seq results: CSPP1 expression,"gene CSPP1, hepatocytes",0.17
same,RNA-seq results: CTC1 expression,"gene CTC1, hepatocytes",0.2
same,RNA-seq results: CTDSP2 expression,"gene CTDSP2, hepatocytes",0.56
same,RNA-seq results: CTH expression,"gene CTH, hepatocytes",1.87
same,RNA-seq results: CTNS expression,"gene CTNS, hepatocytes",0.42
same,RNA-seq results: CTSF expression,"gene CTSF, hepatocytes",0.68
same,RNA-seq results: CTSK expression,"gene CTSK, hepatocytes",−0.49
same,RNA-seq results: CYB5A expression,"gene CYB5A, hepatocytes",0.43
same,RNA-seq results: CYB5R3 expression,"gene CYB5R3, hepatocytes",0.05
same,"RNA-seq results, CYP2B6 expression","gene CYP2B6, hepatocytes",0.03
same,RNA-seq results: CYP2B6 expression,"gene CYP2B6, hepatocytes",0.58
same,"RNA-seq results, CYP2C19 expression","gene CYP2C19, hepatocytes",0.12
same,RNA-seq results: CYP2C19 expression,"gene CYP2C19, hepatocytes",0.2
same,"RNA-seq results, CYP2D6 expression","gene CYP2D6, hepatocytes",0.10
same,RNA-seq results: CYP2D6 expression,"gene CYP2D6, hepatocytes",0.47
same,"RNA-seq results, CYP3A4 expression","gene CYP3A4, hepatocytes",−0.49
same,RNA-seq results: CYP3A4 expression,"gene CYP3A4, hepatocytes",2.11
same,"RNA-seq results, CYP7B1 expression","gene CYP7B1, hepatocytes",−0.21
same,RNA-seq results: CYP7B1 expression,"gene CYP7B1, hepatocytes",0.28
same,RNA-seq results: CYP27A1 expression,"gene CYP27A1, hepatocytes",0.51
same,"RNA-seq results, CYP39A1 expression","gene CYP39A1, hepatocytes",−0.43
same,RNA-seq results: CYP39A1 expression,"gene CYP39A1, hepatocytes",0.62
same,RNA-seq results: DAO expression,"gene DAO, hepatocytes",−1.2
same,RNA-seq results: DBT expression,"gene DBT, hepatocytes",−0.43
same,RNA-seq results: DCDC2 expression,"gene DCDC2, hepatocytes",−2.5
same,RNA-seq results: DCXR expression,"gene DCXR, hepatocytes",−0.23
same,RNA-seq results: FABP1 expression,"gene FABP1, hepatocytes",−0.17
same,RNA-seq results: FADD expression,"gene FADD, hepatocytes",−0.29
same,RNA-seq results: FAM111A expression,"gene FAM111A, hepatocytes",−0.05
same,RNA-seq results: FAM111B expression,"gene FAM111B, hepatocytes",−2.02
same,RNA-seq results: FAN1 expression,"gene FAN1, hepatocytes",−0.36
same,RNA-seq results: FARS2 expression,"gene FARS2, hepatocytes",−0.34
same,RNA-seq results: FASLG expression,"gene FASLG, hepatocytes",−1.44
same,RNA-seq results: FGA expression,"gene FGA, hepatocytes",0.12
same,RNA-seq results: FGD1 expression,"gene FGD1, hepatocytes",−0.27
same,RNA-seq results: FGFR2 expression,"gene FGFR2, hepatocytes",−0.22
same,RNA-seq results: FIG4 expression,"gene FIG4, hepatocytes",0.06
same,RNA-seq results: FIS1 expression,"gene FIS1, hepatocytes",−0.18
same,RNA-seq results: FTCD expression,"gene FTCD, hepatocytes",0.32
same,RNA-seq results: FTH1 expression,"gene FTH1, hepatocytes",0.48
same,RNA-seq results: FUCA1 expression,"gene FUCA1, hepatocytes",0.24
same,RNA-seq results: FXN expression,"gene FXN, hepatocytes",−0.02
same,RNA-seq results: G6PC3 expression,"gene G6PC3, hepatocytes",−0.25
same,RNA-seq results: G6PC expression,"gene G6PC, hepatocytes",3.27
same,RNA-seq results: G6PD expression,"gene G6PD, hepatocytes",0.13
same,RNA-seq results: GALK1 expression,"gene GALK1, hepatocytes",−0.37
same,RNA-seq results: GALK2 expression,"gene GALK2, hepatocytes",−0.25
same,RNA-seq results: GALT expression,"gene GALT, hepatocytes",0.41
same,RNA-seq results: GATA6 expression,"gene GATA6, hepatocytes",0.11
same,RNA-seq results: GATM expression,"gene GATM, hepatocytes",−0.46
same,RNA-seq results: GBA expression,"gene GBA, hepatocytes",−0.11
same,RNA-seq results: GBE1 expression,"gene GBE1, hepatocytes",0.2
same,RNA-seq results: GCH1 expression,"gene GCH1, hepatocytes",−0.38
same,RNA-seq results: GCKR expression,"gene GCKR, hepatocytes",−0.08
same,RNA-seq results: GCLC expression,"gene GCLC, hepatocytes",0.14
same,RNA-seq results: GOSH expression,"gene GOSH, hepatocytes",−0.4
same,RNA-seq results: RRM2B,"gene RRM2B, hepatocytes",−0.21
same,RNA-seq results: RSAD1,"gene RSAD1, hepatocytes",0.12
same,RNA-seq results: SAMHD1,"gene SAMHD1, hepatocytes",−0.34
same,RNA-seq results: SC5D,"gene SC5D, hepatocytes",−0.37
same,RNA-seq results: SCARB1,"gene SCARB1, hepatocytes",0.05
same,RNA-seq results: SCN9A,"gene SCN9A, hepatocytes",−0.07
same,RNA-seq results: SDCCAG8,"gene SDCCAG8, hepatocytes",−0.12
same,RNA-seq results: SEPN1,"gene SEPN1, hepatocytes",0.00
same,RNA-seq results: SERAC1,"gene SERAC1, hepatocytes",−0.07
same,RNA-seq results: SERPINA1,"gene SERPINA1, hepatocytes",−0.19
same,RNA-seq results: SERPING1,"gene SERPING1, hepatocytes",−0.31
same,RNA-seq results: SERPINI1,"gene SERPINI1, hepatocytes",−0.28
same,RNA-seq results: SETBP1,"gene SETBP1, hepatocytes",0.11
same,RNA-seq results: SFXN4,"gene SFXN4, hepatocytes",−0.14
same,RNA-seq results: SLC10A1,"gene SLC10A1, hepatocytes",−0.40
same,RNA-seq results: SLC10A3,"gene SLC10A3, hepatocytes",0.53
same,RNA-seq results: SLC10A5,"gene SLC10A5, hepatocytes",−0.06
same,RNA-seq results: SLC10A7,"gene SLC10A7, hepatocytes",−0.46
same,RNA-seq results: SLC11A2,"gene SLC11A2, hepatocytes",−0.01
same,RNA-seq results: SLC19A1,"gene SLC19A1, hepatocytes",−0.10
same,RNA-seq results: SLC19A2,"gene SLC19A2, hepatocytes",−0.05
same,RNA-seq results: SLC19A3,"gene SLC19A3, hepatocytes",−0.26
same,RNA-seq results: SLC22A1,"gene SLC22A1, hepatocytes",−0.18
same,RNA-seq results: SLC22A5,"gene SLC22A5, hepatocytes",0.03
same,RNA-seq results: SLC25A1,"gene SLC25A1, hepatocytes",0.36
same,RNA-seq results: SLC25A10,"gene SLC25A10, hepatocytes",0.09
same,RNA-seq results: SLC25A12,"gene SLC25A12, hepatocytes",0.10
same,RNA-seq results: SLC25A13,"gene SLC25A13, hepatocytes",−0.06
same,RNA-seq results: SLC25A15,"gene SLC25A15, hepatocytes",0.04
same,RNA-seq results: SLC25A19,"gene SLC25A19, hepatocytes",−0.02
same,RNA-seq results: SLC25A20,"gene SLC25A20, hepatocytes",−0.21
same,RNA-seq results: SLC25A29,"gene SLC25A29, hepatocytes",0.39
same,RNA-seq results: SLC25A32,"gene SLC25A32, hepatocytes",−0.19
CCC(CC)[C@H](NC(C)=O)[C@@H]1[C@H](O)[C@@H](C(=O)O)C[C@H]1N=C(N)N [Peramivir],Number (#) of genes having significantly changed expression,"RNA-seq, hepatocytes",23
"CCCCCCCCCCCCCCCCCCOP(=O)([O-])OC1CC[N+](C)(C)CC1 [Perifosine (KRX-0401), Perifosine]",significant modulation of expression of any of the genes analyzed,"RNA-seq, hepatocytes",not observed to significantly modulate expression
CSCC[C@H](N)C(=O)N[C@@]1(C(=O)O)CS(=O)(=O)[C@H]2[C@H](C(=O)O)[C@H]21 [Pomaglumetad methionil],significant changes in gene expression,,not observed to cause any significant changes in gene expression
same,significant modulation of expression of any of the genes analyzed,"RNA-seq, hepatocytes",not observed to significantly modulate expression
